Columns and labels:
3T3-L1 cells = assay: adipogenesis assay (formation of oil droplets); type: cell-based, mouse; set-up: key: +: The analogues that completely inhibited the formation of oil droplets in cells were scored to be adipogenesis-inhibiting analogues; settings: formation of oil droplets in cells
Procedure: The adipogenesis assay was performed as described (Choi et al., 2003).

endogenous SREBPs [1] = assay: Luciferase reporter assay (pSRE-Luc, normalized by β-gal) in HEK293 cells; type: cell-based, human; set-up: Luc/Gal: dose or concentration left out as unconfirmed; settings: entries 1-18 (FIG. 15); none = 9.4426
Procedure: On day 0, HEK293 cells were plated out in triplicate at a density of 5×10^3/well onto a 96-well plate in a Dulbecco's modified Eagle's medium with 10% fetal bovine serum, 100 units/mL penicillin, and 100 μg/mL streptomycin sulfate. On day 2, the cells were transiently co-transfected with the following plasmids by using Lipofectamine reagent (Invitrogen): 0.4 μg/well pSRE-Luc (an SRE-1-driven luciferase reporter construct; Hua et al., 1995 J Biol Chem 270, 29422-7), and 0.1 μg/well a b-gal reporter in which the expression of β-gal is controlled by an actin promoter in a final volume of […]. After incubation for 5 hrs at 37° C., the cells were washed with phosphate-buffered saline and then incubated in 100 μl of Dulbecco's modified Eagle's medium with 10% lipid-depleted serum, […] penicillin, and 100 μg/mL streptomycin sulfate in the absence or presence of fatostatin A. After 20 hrs of incubation, the cells in each well were lysed with 20 μL of 1× Reporter Lysis Buffer (Promega), and aliquots were used for measurement of luciferase (10 μL) and β-galactosidase (10 μL) activities. For luciferase assay, photon production was detected as counts per second in a Wallac 1420 ARVOsx multilabel counter (PerkinElmer). For β-galactosidase assays, hydrolysis of O-nitrophenyl-β-D-galactosidase was measured after incubation for 0.5 h at 37° C. by a microplate reader at the wave length of 405 nm (Tecan). The luciferase activity (counts per second) was normalized by the activity of β-galactosidase (OD units). For overexpression of the N-terminal matured form of SREBP-1c, pCMV-SREBP-1c (1-436) was co-transfected with pSRE-Luc. pSRE-Luc and pCMV-SREBP-1c (1-436) were provided by J. L. Goldstein (University of Texas Southwestern Medical Center). […]

MOLT-4 cells = assay: MOLT-4 cell growth, MTT assay; type: cell-based, human; settings: 48 hours
Procedure: 10,000 MOLT-4 cells (FIGS. 35A-35C) and 20,000 RPM18226 cells (FIGS. 35D-35F) were seeded onto 96 well plate in RPMI 1640 medium containing 5% FBS or fat-free charcoal treated serum (FF-FBS) for 24 hours at 37 C. MOLT-4 and RPM18226 cells were treated for additional 48 hours with different concentrations of compound 19 (None control without DMSO, Vehicle with DMSO, 1, 2, 5, 10 and 20 μM in DMSO; RPM18226 cells also were treated with 3 μM in DMSO). At the end of 48 hours cells were subjected to MTT assay to determine viability. Values are depicted as means±SD; *P<0.05.
20,000 MOLT-4 cells (FIGS. 36A-36C) and 20,000 RPM18226 cells (FIGS. 36D-36F) cells were seeded onto 96 well plates in RPMI 1640 Medium containing 5% Fetal bovine serum (FBS) or 5% fat free charcoal treated serum (FF-FBS) for 24 hours at 37 C. Cells then were treated for additional 48 hours with different concentrations of compound 17 (None control without DMSO, Vehicle with DMSO, 1, 2, 3, 5, 10 and 20 μM in DMSO). At the end of the 48 hours treatment cells were subjected to MTT assay to determine viability. Values are depicted as means±SD (n=3); **P<0.001; ***P<0.0001.
MOLT-4 cells were grown at two different conditions under 5% fetal bovine serum (FBS) and under 5% FBS fat free serum (charcoal treated serum). 10,000 Cells were seeded a 96 well plate for 24 hours before starting the treatment with different concentrations of compound 19. Compound 19 dissolved in DMSO was added to cells for 48 hours before determining cell growth using MTT assay. […] Compound 19 inhibited cell growth about 75-80% at 10 and 20 μM under both growth conditions.
MOLT-4 cells were grown at two different conditions under 5% fetal bovine serum (FBS) and under 5% FBS fat free serum (charcoal treated serum). 20,000 cells were seeded into a 96 well plate for 24 hours before starting the treatment with different concentrations of compound 17. Compound 17 dissolved in DMSO was added to cells for 48 hours before determining cell growth using MTT assay. […] Compound 17 inhibited cell growth about 85-100% at 5, 10 and 20 μM under both growth conditions. Under both 5% FBS and 5% FBS fat free sera there was a strong trend of inhibition starting at 1 μM (FIGS. 36B-36C).

endogenous SREBPs [2] = assay: SREBP activation assay (pSRE-Luc luciferase reporter) in CHO-K1 cells; type: cell-based, Chinese hamster; settings: Cricetulus griseus, CHO-K1; 5 μM in CHOK1 cells
Procedure: To confirm that fatostatin impairs the function of SREBPs, the ability of endogenous SREBPs to activate transcription of an SREBP-responsive reporter gene was measured in CHO-K1 cells in the presence or absence of fatostatin (FIG. 18A).
Luciferase reporter assay. On day 0, CHO-K1 cells were plated out onto a 96-well plate in medium A (a 1:1 mixture of Ham's F-12 medium and Dulbecco's modified Eagle's medium, with 5% fetal bovine serum, 100 units/mL penicillin, and 100 μg/mL streptomycin sulfate). On day 2, the cells were transiently co-transfected with pSRE-Luc (an SRE-1-driven luciferase reporter construct) (Hua et al., 1995) and pAc-β-gal (β-gal reporter in which the expression of β-gal is controlled by an actin promoter), using Lipofectamine reagent (Invitrogen). After incubation for 5 h, the cells were washed with phosphate-buffered saline (PBS), and then incubated, in the absence or presence of fatostatin, in medium B (a 1:1 mixture of Ham's F-12 medium and Dulbecco's modified Eagle's medium, with 5% lipid-depleted serum, 100 units/mL penicillin, 100 μg/mL streptomycin sulfate, […], and 50 mM sodium mevalonate). After 20 h of incubation, the cells in each well were lysed, and aliquots were used to measure luciferase and β-galactosidase activities. Luciferase activity was normalized by the activity of β-galactosidase. For overexpression of the N-terminal matured form of SREBP-1c, pCMV-SREBP-1c(1-436) was co-transfected with pSRE-Luc and pAc-β-gal.
Standard SREBP activation assays were performed on the exemplary compounds identified in Table 4 as per the method for Fatostatin A in Example 1. The ability of endogenous SREBPs to activate transcription of an SREBP-responsive reporter gene was measured in the presence or absence of compounds 45-55 and 19 (FIG. 28), compounds 56-61 and 19 (FIG. 29) and compounds 62-66 (FIG. 30) at 5 μM in CHOK1 cells. […] The inhibitory concentrations of compounds 53 (FIG. 31) and compounds 58 and 61 (FIG. 32) were determined.

| Compound | Inhibition of adipogenesis (3T3-L1 cells) | Luc/Gal (endogenous SREBPs [1]) | inhibition under 5% FF FBS relative to 5% FBS (MOLT-4 cells; 3 μM) | inhibition of cell growth (MOLT-4 cells; 5, 10 and 20 μM, both growth conditions) | inhibition at 5 µM (endogenous SREBPs [2]) [%] |
| --- | --- | --- | --- | --- | --- |
| CCCc1cc(-c2nc(-c3ccc(NC(C)C)cc3)cs2)ccn1 [Compound 17, N-isopropyl-4-(2-(2-propylpyridin-4-yl)thiazol-4-yl)benzenamine] | + | 4.7079 | about 2.5 times | 85-100% |  |
| CS(=O)(=O)Nc1ccc(-c2csc([C@H]3CCCN3C(=O)OCc3ccccc3)n2)cc1 [Compound 53, benzyl (R)-2-(4-(4-(methylsulfonamido)phenyl)thiazol-2-yl)pyrrolidine-1-carboxylate] |  |  |  |  | ~30 |
| Cc1ccc(S(=O)(=O)Nc2ccc(C(=O)N3CCN(c4cc(Cl)ccc4C)CC3)cc2)cc1 [Compound 58, (4-(5-chloro-2-methylphenyl)piperazin-1-yl)(4-(tosylamino)phenyl)methanone] |  |  |  |  | ~42 |
| Cc1ccc(-c2csc(/C(C#N)=C\Cc3ccc(S(=O)(=O)Nc4nccs4)cc3)n2)c(C)c1 [Compound 61, (Z)-4-(3-cyano-3-(4-(2,4-dimethylphenyl)thiazol-2-yl)allyl)-N-(thiazol-2-yl)benzenesulfonamide] |  |  |  |  | ~25 |
